Measurements from patent EP0517347A1, “New combinations for the treatment of Parkinsons disease, containing NMDA-antagonists” (SCHERING AKTIENGESELLSCHAFT, priority 1991, dated 1992).

Assays:
[1] = tested on: MPTP-behandelten Pinselohräffchen; assay: Experimental Parkinson syndrome induced by the neurotoxin MPTP in marmosets; format: in vivo
Procedure: In gleicher Weise wurden die erfindungsgemäßen Verbindungen am Pinselohräffchen untersucht, bei denen durch das Neurotoxin MPTP ein experimentelles Parkinsonsyndrom erzeugt wurde.
Im gleichen Modell wurde CPP (0.1, 0.39, 1.56 mg/kg i.p.) mit den direkten Dopaminagonisten Apomorphin (0.05 mg/kg i.p. ) oder Lisurid (0.1 mg/kg i.p. ) geprüft (Abb. 3 und 4).

[2] = tested on: unilateral Substantia nigralädierten Ratten; assay: Induction of contralateral rotations in rats with unilateral 6-OHDA lesion of the substantia nigra (automated rotometer); format: in vivo, Wistar-Ratten
Procedure: Die erfindungsgemäße Wirkung wird am Beispiel des CPP dargestellt: Auslösung von kontralateralen Rotationen an unilateral Substantia nigralädierten Ratten. Männliche Wistar-Ratten wurden 8 Monate vor dem Experiment durch Injektion von 16 µg 6-Hydroxydopamin (6-OHDA) in die linke Substantia nigra lädiert. Die Messung der Rotationen erfolgte in automatisierten Rotometern. Die Tiere wurden in Plexiglas-Halbschalen (Durchmesser 40 cm) gesetzt und mechanisch mit einem Winkelschrittgeber verbunden. Die Bewegungen mit und entgegen dem Uhrzeigersinn wurden getrennt in 10-Minuten-Intervallen für 2 Stunden erfasst.
Die Ergebnisse dieser Versuche lassen sich wie folgt zusammenfassen: Die mit Lösungsmitteln behandelten Tiere zeigen kaum spontane Rotationen.

SMILES | Wirkung von L-Dopa und Benserazid ([1]; CPP 0,1, 0,39, 1,56 mg/kg i.p. added to L-Dopa 20 mg/kg i.p. + Benserazid 20 mg/kg i.p., Abb. 2) | kombinierte Behandlung mit Apomorphin ([1]; CPP 0.1, 0.39, 1.56 mg/kg i.p. with Apomorphin 0.05 mg/kg i.p., analysis of variance and Tukey test, p < 0.0.1, Abb. 3 und 4) | kombinierte Behandlung mit Lisurid ([1]; CPP 0.1, 0.39, 1.56 mg/kg i.p. with Lisurid 0.1 mg/kg i.p., analysis of variance and Tukey test, p < 0.0.1, Abb. 3 und 4) | durch L-Dopa induzierte Rotationen ([2]; CPP 0,025, 0,39, 1,56 and 6,25 mg/kg i.p. added to L-Dopa 25 mg/kg i.p. + Benserazid 100 mg/kg i.p., Abb. 1) | Zahl der Rotationen in 2 Stunden ([2]; highest dose of CPP (6,25 mg/kg i.p.) plus L-Dopa + Benserazid, compared with L-Dopa treatment, Abb. 1) | Rotationsbewegungen ([2]; L+Dopa 25 mg/kg i.p. and Benserazid 100 mg/kg i.p., without CPP, 6-OHDA-lesioned rats)
O=C(O)C1CN(CCCP(=O)(O)O)CCN1 (racemic) [CPP, 3-((±)-2-carboxy-piperazin-4-yl)-propyl-1-phosphonsäure] | dosisabhängig verstärkt | signifikantem Synergismus | signifikantem Synergismus | dosisabhängig verstärkt | signifikant von der L-Dopa Behandlung verschieden | –
N[C@@H](Cc1ccc(O)c(O)c1)C(=O)O [L+Dopa] | – | – | – | – | – | leichte Rotationsbewegungen
